In patent US20110160272A1, “METHODS AND COMPOSITIONS FOR USE OF ANGIOGENESIS INHIBITORS IN THE PREVENTION AND/OR CONTROL OF EPILEPSY” (priority 2004, published 2011):

Tested on: KASE rats
Experiment: Effect of angiogenesis inhibitor on spontaneous seizure development after kainic acid-induced status epilepticus (KASE)
Format: in vivo, rat
Details: KASE rats (n=4); twice daily injections for fourteen consecutive days beginning one week following KASE; first three weeks of monitoring, daily 8-hour observation sessions; relative to untreated KASE or control rats
From the text: We have administered HET0016, an inhibitor of angiogenesis, during the “latent period” that follows KASE and precedes the emergence of spontaneous seizures, to assess whether the development of spontaneous seizures could be impeded. Optimal doses for achieving antiangiogenesis have been established for some of these compounds in other pathological contexts and we have acquired some knowledge of the progression of angiogenesis following KASE using our temporal BrdU assay. On the basis of these observations, we administered a proven antiangiogenic compound at the optimal dosage established in other pathological contexts. This compound was administered to KASE rats (n=4) via twice daily injections for fourteen consecutive days, beginning one week following KASE. Four untreated KASE rats (n=4) received sham injections of diluent and were processed in parallel. Control rats (n=2) received neither KASE nor antiangiogenic therapy. The occurrence of spontaneous seizures in these cohorts was monitored during daily during 8-hour observation sessions beginning one week following KASE, and continues to the present.

`CCCCc1ccc(N=CNO)c(C)c1` [HET0016] was tested, and the “development of spontaneous seizures (cumulative seizures, FIG. 7)” value was “impeded the development of spontaneous seizures”.
